# Laboratory results from PubChem BioAssay AID248 (DTP/NCI, 2004).
# Several values for one entry are separate records, joined by “and”; a condition that tells them apart may be missing. Equal values may be shown once. Inconclusive results and toxic doses are left out. Numbered stars: 1 amine (or outer) side, 2 acyl side, 3 side chain; on linkers, the order of the positions; unused ones are H or OH. Bridge positions count the residues as written; N and C are the ends. Square brackets hold non-standard residues; d marks the D form. Peptide text beside a SMILES is read from it. I, II: the chains in the order shown. Actinocin(9to1) = Cc1c2oc3c(C)ccc(C(=O)[*:1])c3nc-2c(C(=O)[*:2])c(N)c1=O; X4 = O=C(C1CC(Cl)CN1[*:1])[*:2]; NMeV = CN[CH](C(=O)O)C(C)C; Sar = CNCC(=O)O
# Test system: L1210 leukemia ip in BDF1 mice, survival T/C
# Assay: NCI In Vivo Anticancer Drug Screen. Data for tumor model L1210 Leukemia (intraperitoneal) in B6D2F1 (BDF1) mice
# Settings: endpoint: mean survival time, higher = longer survival
# Outline: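 Tumor cells were implanted, animals were treated, and survival was followed. The result divides the treated measurement by the vehicle-control measurement.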
# [1] = dose: 100.0 mg/kg/injection, schedule: Q01DX009 (ip), vehicle: Klucel (hydroxypropylcellulose) (HPC)
# [2] = dose: 100.0 mg/kg/injection, schedule: Q04DX003 (ip), vehicle: Klucel (hydroxypropylcellulose) (HPC)
# [3] = dose: 200.0 mg/kg/injection, schedule: Q01DX009 (ip), vehicle: Klucel (hydroxypropylcellulose) (HPC)
# [4] = dose: 200.0 mg/kg/injection, schedule: Q04DX003 (ip), vehicle: Klucel (hydroxypropylcellulose) (HPC)
# [5] = dose: 400.0 mg/kg/injection, schedule: Q04DX003 (ip), vehicle: Klucel (hydroxypropylcellulose) (HPC)
# [6] = dose: 100.0 mg/kg/injection, schedule: Q01DX001 (ip), vehicle: Klucel (hydroxypropylcellulose) (HPC)
# [7] = dose: 200.0 mg/kg/injection, schedule: Q01DX001 (ip), vehicle: Klucel (hydroxypropylcellulose) (HPC)
# [8] = dose: 400.0 mg/kg/injection, schedule: Q01DX001 (ip), vehicle: Klucel (hydroxypropylcellulose) (HPC)
# [9] = dose: 100.0 mg/kg/injection, schedule: Q01DX001 (ip), vehicle: carboxymethylcellulose (CMC)
# [10] = dose: 200.0 mg/kg/injection, schedule: Q01DX001 (ip), vehicle: carboxymethylcellulose (CMC)
# [11] = dose: 400.0 mg/kg/injection, schedule: Q01DX001 (ip), vehicle: carboxymethylcellulose (CMC)
# [12] = dose: 100.0 mg/kg/injection, schedule: Q04DX002 (ip), vehicle: Klucel (hydroxypropylcellulose) (HPC)
# [13] = dose: 200.0 mg/kg/injection, schedule: Q04DX002 (ip), vehicle: Klucel (hydroxypropylcellulose) (HPC)
# [14] = dose: 400.0 mg/kg/injection, schedule: Q04DX002 (ip), vehicle: Klucel (hydroxypropylcellulose) (HPC)
structure (smiles),measurement,setting,value
c1ccc(NC(c2ccccc2)C(Nc2ccccc2)(c2ccccc2)c2ccccc2)cc1 (stereo unspecified),T/C,"dose: 100.0 mg/kg/injection, schedule: Q04DX003 (ip), vehicle: other",89 % of control
same,T/C,"dose: 200.0 mg/kg/injection, schedule: Q04DX003 (ip), vehicle: other",94 % of control
same,T/C,"dose: 400.0 mg/kg/injection, schedule: Q04DX003 (ip), vehicle: other",87 % of control
COC(=O)c1cccc2c1C1CCC2c2cccc(C(=O)OC)c21,T/C,"dose: 100.0 mg/kg/injection, schedule: Q04DX002 (ip), vehicle: gum acacia",101 % of control
same,T/C,"dose: 200.0 mg/kg/injection, schedule: Q04DX002 (ip), vehicle: gum acacia",96 % of control
same,T/C,"dose: 400.0 mg/kg/injection, schedule: Q04DX002 (ip), vehicle: gum acacia",99 % of control
COC(=O)CNC(=O)OCc1ccccc1,T/C,[1],108 % of control
same,T/C,[2],101 % of control
same,T/C,[3],97 % of control
same,T/C,[4],101 % of control
same,T/C,"dose: 400.0 mg/kg/injection, schedule: Q01DX009 (ip), vehicle: Klucel (hydroxypropylcellulose) (HPC)",96 % of control
same,T/C,[5],98 % of control
NC(=S)c1c(N)ncn1C1OC(CO)C(O)C1O (stereo unspecified),T/C,"dose: 100.0 mg/kg/injection, schedule: Q01DX005 (ip), vehicle: saline",92 % of control
same,T/C,"dose: 200.0 mg/kg/injection, schedule: Q01DX005 (ip), vehicle: saline",90 % of control
CCCC(=O)OCC1CO1 (stereo unspecified),T/C,[6],100 % of control
same,T/C,[2],104 % of control
same,T/C,[7],104 % of control
same,T/C,[4],98 % of control
same,T/C,[8],102 % of control
same,T/C,[5],106 % of control
CCOC(=O)CN1CCC(C(=O)OCC)CC1,T/C,"dose: 50.0 mg/kg/injection, schedule: Q01DX001 (ip), vehicle: carboxymethylcellulose (CMC)",106 % of control
same,T/C,[9],97 % of control
same,T/C,[10],103 % of control
same,T/C,[11],106 % of control
"Cc1c2oc3c(C)ccc(C(=O)NC4C(=O)NC(C(C)C)C(=O)N5CC(Cl)CC5C(=O)N(C)CC(=O)N(C)C(C(C)C)C(=O)OC4C)c3nc-2c(C(=O)NC2C(=O)NC(C(C)C)C(=O)N3CC(Cl)CC3C(=O)N(C)CC(=O)N(C)C(C(C)C)C(=O)OC2C)c(N)c1=O (stereo unspecified) (I: TV[X4][Sar][NMeV] / II: TV[X4][Sar][NMeV]; ester I:1-I:C, II:1-II:C; linker I:N-II:N via Actinocin(9to1); configuration not given here)",T/C,"dose: 200.0 micrograms/kg/injection, schedule: Q01DX009 (ip), vehicle: saline + alcohol",117 % of control
same,T/C,"dose: 300.0 micrograms/kg/injection, schedule: Q01DX009 (ip), vehicle: saline + alcohol",123 % of control
same,T/C,"dose: 600.0 micrograms/kg/injection, schedule: Q01DX009 (ip), vehicle: saline + alcohol",124 % of control
same,T/C,"dose: 800.0 micrograms/kg/injection, schedule: Q01DX009 (ip), vehicle: saline + alcohol",156 % of control
same,T/C,"dose: 800.0 micrograms/kg/injection, schedule: Q04DX003 (ip), vehicle: saline + alcohol",122 % of control
same,T/C,"dose: 4800.0 micrograms/kg/injection, schedule: Q04DX003 (ip), vehicle: saline + alcohol",121 % of control
CCN(CC)C(=O)Nc1cccc([N+](=O)[O-])c1,T/C,[12],104 % of control
same,T/C,[13],97 % of control
same,T/C,[14],101 % of control
COC1C(O)C(C)OC(OC2CC3CCC4C(CCC5(C)C(C6=CC(=O)OC6)CCC45O)C3(C)C(OC(C)=O)C2)C1O (stereo unspecified) (tested in a mixture with another compound),T/C,"dose: 25.0 mg/kg/injection, schedule: Q01DX009 (sc), vehicle: steriod suspending solution",101 % of control
CCCCCCCCCCCCCCCCOc1ccc(C(C)(C)C)cc1,T/C,[6],93 % of control
same,T/C,[7],93 % of control
same,T/C,[8],93 % of control
CCCNc1ncnc2c1cnn2C,T/C,"dose: 50.0 mg/kg/injection, schedule: Q01DX009 (ip), vehicle: saline",124 % of control
same,T/C,"dose: 50.0 mg/kg/injection, schedule: Q04DX003 (ip), vehicle: saline",100 % of control
same,T/C,"dose: 100.0 mg/kg/injection, schedule: Q01DX001 (ip), vehicle: saline",107 % of control
same,T/C,"dose: 100.0 mg/kg/injection, schedule: Q04DX003 (ip), vehicle: saline",102 % of control
same,T/C,"dose: 200.0 mg/kg/injection, schedule: Q01DX001 (ip), vehicle: saline",104 % of control
same,T/C,"dose: 200.0 mg/kg/injection, schedule: Q04DX003 (ip), vehicle: saline",103 % of control
Cc1cc(S(=O)(=O)O)cc(N)c1N,T/C,[6],105 % of control
same,T/C,[7],98 % of control
same,T/C,[8],91 % of control
COC1=C(c2ccccc2)P(=O)(Cc2ccccc2)C(C)C1 (stereo unspecified),T/C,[12],108 % of control
same,T/C,[13],96 % of control
same,T/C,[14],93 % of control
CC1(C)OCC(C2OC3OC(c4ccccc4)=NC3C2O)O1 (stereo unspecified),T/C,[6],96 % of control
same,T/C,[7],104 % of control
same,T/C,[8],101 % of control
O=C(Cn1ccc(=O)[nH]c1=O)Nc1ccc(O)c(C(=O)O)c1,T/C,"dose: 50.0 mg/kg/injection, schedule: Q04DX003 (ip), vehicle: Klucel (hydroxypropylcellulose) (HPC)",100 % of control
same,T/C,[2],107 % of control
same,T/C,[4],100 % of control
O=c1[nH]c(=O)n(Cc2ccccc2)cc1Cc1ccccc1,T/C,"dose: 100.0 mg/kg/injection, schedule: Q04DX003 (ip), vehicle: saline with Tween-80",106 % of control
same,T/C,"dose: 200.0 mg/kg/injection, schedule: Q04DX003 (ip), vehicle: saline with Tween-80",98 % of control
same,T/C,"dose: 400.0 mg/kg/injection, schedule: Q04DX003 (ip), vehicle: saline with Tween-80",101 % of control
O=CN/N=C/c1ccc2c(c1)CCC2,T/C,"dose: 100.0 mg/kg/injection, schedule: Q01DX009 (ip), vehicle: saline with Tween-80",97 % of control
same,T/C,"dose: 200.0 mg/kg/injection, schedule: Q01DX009 (ip), vehicle: saline with Tween-80",102 % of control
same,T/C,"dose: 400.0 mg/kg/injection, schedule: Q01DX009 (ip), vehicle: saline with Tween-80",98 % of control
Cc1cccc(NC(=O)c2c(Cl)c(Cl)c(Cl)c(Cl)c2C(=O)O)c1C,T/C,[12],91 % of control
same,T/C,[13],100 % of control
COc1ccc2c(ccc3c2ncc2c(=O)[nH]n(C)c23)c1,T/C,"dose: 50.0 mg/kg/injection, schedule: Q01DX009 (ip), vehicle: Klucel (hydroxypropylcellulose) (HPC)",93 % of control
same,T/C,[1],93 % of control
same,T/C,[3],93 % of control
CN(C)c1ccc(C#N)cc1,T/C,"dose: 1.5 mg/kg/injection, schedule: Q04DX002 (ip), vehicle: Klucel (hydroxypropylcellulose) (HPC)",107 % of control
same,T/C,"dose: 3.1 mg/kg/injection, schedule: Q04DX002 (ip), vehicle: Klucel (hydroxypropylcellulose) (HPC)",107 % of control
same,T/C,"dose: 6.25 mg/kg/injection, schedule: Q04DX002 (ip), vehicle: Klucel (hydroxypropylcellulose) (HPC)",97 % of control and 111 % of control
CCN(CC)C(=O)N1CCN(c2ccc(OC)cc2)CC1,T/C,"dose: 75.0 mg/kg/injection, schedule: Q01DX001 (ip), vehicle: saline",94 % of control
same,T/C,"dose: 75.0 mg/kg/injection, schedule: Q04DX003 (ip), vehicle: saline",100 % of control
same,T/C,"dose: 150.0 mg/kg/injection, schedule: Q01DX001 (ip), vehicle: saline",100 % of control
same,T/C,"dose: 150.0 mg/kg/injection, schedule: Q04DX003 (ip), vehicle: saline",100 % of control
same,T/C,"dose: 300.0 mg/kg/injection, schedule: Q01DX001 (ip), vehicle: saline",91 % of control
same,T/C,"dose: 300.0 mg/kg/injection, schedule: Q04DX003 (ip), vehicle: saline",110 % of control
Cc1ccc(-c2ccno2)cc1,T/C,[9],96 % of control
same,T/C,[10],92 % of control
same,T/C,[11],97 % of control
O=C1c2cc3c(cc2CCC1c1ccc2c(c1)OCO2)OCO3 (stereo unspecified),T/C,"dose: 40.0 mg/kg/injection, schedule: Q01DX009 (ip), vehicle: saline with Tween-80",88 % of control
same,T/C,"dose: 80.0 mg/kg/injection, schedule: Q01DX009 (ip), vehicle: saline with Tween-80",88 % of control
same,T/C,"dose: 120.0 mg/kg/injection, schedule: Q01DX009 (ip), vehicle: saline with Tween-80",94 % of control
same,T/C,"dose: 240.0 mg/kg/injection, schedule: Q01DX009 (ip), vehicle: saline with Tween-80",94 % of control
same,T/C,"dose: 240.0 mg/kg/injection, schedule: Q01DX009 (ip), vehicle: saline",93 % of control
same,T/C,"dose: 360.0 mg/kg/injection, schedule: Q01DX009 (ip), vehicle: saline with Tween-80",96 % of control
same,T/C,"dose: 360.0 mg/kg/injection, schedule: Q01DX009 (ip), vehicle: saline",96 % of control
same,T/C,"dose: 545.0 mg/kg/injection, schedule: Q01DX009 (ip), vehicle: saline",91 % of control
